Experimental data reported in US10076519B2 (CYTOKINETICS, INC., priority 2010, dated 2018).

System: rabbit skeletal myofibrils (fast skeletal myofibrils)
Experiment: Activation of fast skeletal myofibrils (PUMA assay, PK/LDH-coupled ATPase at pCa25)
Type: biochemical
Outline: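 ATPase activity of Triton-washed rabbit skeletal myofibrils, roughly 90% fast fibres, tracked by NADH loss at 340 nm through a PK/LDH-coupled ADP-regenerating system. Calcium set to 25% of maximal activity (pCa25), in PIPES 12 mM pH 6.8 with 2 mM MgCl2 and 1 mM DTT; AC1.4 reported.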

[1] = median AC1.4 reported as class, procedure of Example 39
[2] = median AC1.4 class, procedure of Example 39
[3] = AC1.4 determined according to the procedure of Example 39, reported as class symbols

Row | Mean AC1.4 [1] | Mean AC1.4 [2] | SMILES | further results
1 | B (B=1-10 uM) |  | NC(=O)c1cc(-c2ccc(NC[C@]3(c4ncccc4F)C[C@H](F)C3)nn2)cc(C(F)(F)F)c1 [3-[6-({[3-fluoro-1-(3-fluoro(2-pyridyl))cyclobutyl]methyl}ami-no)pyridazin-3-yl]-5-(trifluoromethyl)benzamide] | 
2 | A (A=<1 uM) |  | NC(=O)c1cc(O)cc(-c2ccc(NC[C@]3(c4ncccc4F)C[C@H](F)C3)nn2)c1 [3-[6-({[3-fluoro-1-(3-fluoro(2-pyridyl))cyclobutyl]methyl}ami-no)pyridazin-3-yl]-5-hydroxybenzamide] | 
3 | B (B=1-10 uM) |  | Cc1cc(C(N)=O)cc(-c2ccc(NC[C@]3(c4ncccc4F)C[C@H](F)C3)nn2)c1 [3-[6-({[3-fluoro-1-(3-fluoro(2-pyridyl))cyclobutyl]methyl}ami-no)pyridazin-3-yl]-5-methylbenzamide] | 
4 |  | A (A=<1 uM) | NC(=O)c1cccc(-c2ccc(NC[C@]3(c4ncccc4F)C[C@H](F)C3)nn2)c1 [3-[6-({[3-fluoro-1-(3-fluoro(2-pyridyl))cyclobutyl]methyl}ami-no)pyridazin-3-yl]benzamide] | 
5 |  | B (B=1-10 uM) | N#Cc1cccc(-c2ccc(NC[C@]3(c4ncccc4F)C[C@H](F)C3)nn2)c1 [3-[6-({[3-fluoro-1-(3-fluoro(2-pyridyl))cyclobutyl]methyl}ami-no)pyridazin-3-yl]benzenecarbonitrile] | 
6 |  | B (B=1-10 uM) | NS(=O)(=O)c1cccc(-c2ccc(NC[C@]3(c4ncccc4F)C[C@H](F)C3)nn2)c1 [3-[6-({[3-fluoro-1-(3-fluoro(2-pyridyl))cyclobutyl]methyl}ami-no)pyridazin-3-yl]benzenesulfonamide] | 
7 |  | A (A=<1 uM) | O=C(O)c1cccc(-c2ccc(NC[C@]3(c4ncccc4F)C[C@H](F)C3)nn2)c1 [3-[6-({[3-fluoro-1-(3-fluoro(2-pyridyl))cyclobutyl]methyl}ami-no)pyridazin-3-yl]benzoic acid] | 
8 | C (C=10-20 uM) |  | Cc1cc(NCC2(c3ncccc3F)CCC2)nnc1-c1cccc(C(N)=O)c1 [3-[6-({[(3-fluoro(2-pyridyl))cyclobutyl]methyl}ami-no)-4-methylpyridazin-3-yl]benzamide] | 
9 | B (B=1-10 uM) |  | Cc1cc(C(N)=O)c(O)c(-c2ccc(NCC3(c4ncccc4F)CCC3)nn2)c1 [3-[6-({[(3-fluoro(2-pyridyl))cyclobutyl]methyl}ami-no)pyridazin-3-yl]-2-hydroxy-5-methylbenzamide] | 
10 | B (B=1-10 uM) |  | Cc1cc(C#N)c(O)c(-c2ccc(NCC3(c4ncccc4F)CCC3)nn2)c1 [3-[6-({[(3-fluoro(2-pyridyl))cyclobutyl]methyl}ami-no)pyridazin-3-yl]-2-hydroxy-5-methylbenzenecarbonitrile] | 
11 | A (A=<1 uM) |  | NC(=O)c1cccc(-c2ccc(NCC3(c4ncccc4F)CCC3)nn2)c1O [3-[6-({[(3-fluoro(2-pyridyl))cyclobutyl]methyl}ami-no)pyridazin-3-yl]-2-hydroxybenzamide] | 
12 | B (B=1-10 uM) |  | NC(=O)c1ccc(O)c(-c2ccc(NCC3(c4ncccc4F)CCC3)nn2)c1 [3-[6-({[(3-fluoro(2-pyridyl))cyclobutyl]methyl}ami-no)pyridazin-3-yl]-4-hydroxybenzamide] | 
13 | C (C=10-20 uM) |  | O=C(O)c1ccc(O)c(-c2ccc(NCC3(c4ncccc4F)CCC3)nn2)c1 [3-[6-({[(3-fluoro(2-pyridyl))cyclobutyl]methyl}ami-no)pyridazin-3-yl]-4-hydroxybenzoic acid] | 
14 | D (D=>20 uM) |  | Cc1cc(-c2cccc(C(N)=O)c2)nnc1NCC1(c2ncccc2F)CCC1 [3-[6-({[(3-fluoro(2-pyridyl))cyclobutyl]methyl}amino)-5-methylpyridazin-3-yl]benzamide] | 
15 |  | B (B=1-10 uM) | NC(=O)c1nc(-c2ccc(NCC3(c4ncccc4F)CCC3)nn2)no1 [3-[6-({[(3-fluoro-2-pyridyl)cyclobutyl]methyl}ami-no)pyridazin-3-yl]-1,2,4-oxadiazole-5-carboxamide] | 
16 |  | B (B=1-10 uM) | O=c1cc(-c2ccc(NCC3(c4ncccc4F)CCC3)nn2)[nH][nH]1 [3-[6-({[(3-fluoro-2-pyridyl)cyclobutyl]methyl}ami-no)pyridazin-3-yl]-3-pyrazolin-5-one] | 
17 | B (B=1-10 uM) |  | NC(=O)CCc1cnc(-c2ccc(NCC3(c4ncccc4F)CCC3)nn2)s1 [3-{2-[6-({[(3-fluoro-2-pyridyl)cyclobutyl]methyl}ami-no)pyridazin-3-yl]-1,3-thiazol-5-yl}propanamide] | 
18 |  | B (B=1-10 uM) | O=c1[nH]nc(-c2cccc(-c3ccc(NCC4(c5ncccc5F)CCC4)nn3)c2)[nH]1 [3-{3-[6-({[(3-fluoro-2-pyridyl)cyclobutyl]methyl}ami-no)pyridazin-3-yl]phenyl}-1,2,4-triazolin-5-one] | 
19 |  | D (D=>20 uM) | NC(=O)c1cccc(-c2ccc(NCC(F)(F)c3ccccn3)nn2)c1 [3-{6-[(2,2-difluoro-2-(2-pyridyl)ethyl)amino]pyridazin-3-yl}benzamide] | 

Further lines, the molecule ahead of its results:

Row | SMILES | Mean AC1.4 [1] | Mean AC1.4 [2] | further results
20 | NC(=O)c1cccc(-c2ccc(NCC3(c4ccccc4Cl)CC3)nn2)c1 [3-[6-({[(2-chlorophenyl)cyclopropyl]meth-yl}amino)pyridazin-3-yl]benzamide] |  |  | Mean AC1.4 [3]: A (A=<1 uM)
21 | Cc1cc(NCC2(c3ncccc3F)CCC2)nnc1-c1cccc(C#N)c1 [3-[6-({[(3-fluoro(2-pyridyl))cyclobutyl]methyl}ami-no)-4-methylpyridazin-3-yl]benzenecarbonitrile] | C (C=10-20 uM) |  | 
22 | CC1(C)C(=O)NN=C1c1ccc(NCC2(c3ncccc3F)CCC2)nn1 [3-[6-({[(3-fluoro(2-pyridyl))cyclobutyl]methyl}ami-no)pyridazin-3-yl]-4,4-dimethyl-2-pyrazolin-5-one] | D (D=>20 uM) |  | 
23 | Cc1c(-c2ccc(NCC3(c4ncccc4F)CCC3)nn2)[nH][nH]c1=O [3-[6-({[(3-fluoro(2-pyridyl))cyclobutyl]methyl}ami-no)pyridazin-3-yl]-4-methyl-3-pyrazolin-5-one] | D (D=>20 uM) |  | 
24 | O=c1[nH]nc(-c2ccc(NCC3(c4ncccc4F)CCC3)nn2)[nH]1 [3-[6-({[(3-fluoro-2-pyridyl)cyclobutyl]methyl}ami-no)pyridazin-3-yl]-1,2,4-triazolin-5-one] |  | C (C=10-20 uM) | 
25 | CC(C)(CNc1ccc(-c2cc(F)cc(C(N)=O)c2)nn1)c1ccc(F)cc1 [3-fluoro-5-(6-{[2-(4-fluorophenyl)-2-methylpropyl]amino}pyridazin-3-yl)benzamide] |  |  | Mean AC1.4 [3]: B (B=1-10 uM)
26 | O=c1[nH]c(-c2cnc(-c3ccc(NCC4(c5ncccc5F)CCC4)nn3)s2)no1 [3-{2-[6-({[(3-fluoro-2-pyridyl)cyclobutyl]methyl}ami-no)pyridazin-3-yl]-1,3-thiazol-5-yl}-1,2,4-oxadiazolin-5-one] |  | B (B=1-10 uM) | 
27 | O=c1[nH]nc(-c2cnc(-c3ccc(NCC4(c5ncccc5F)CCC4)nn3)s2)[nH]1 [3-{2-[6-({[(3-fluoro-2-pyridyl)cyclobutyl]methyl}ami-no)pyridazin-3-yl]-1,3-thiazol-5-yl}-1,2,4-triazolin-5-one] |  | A (A=<1 uM) | 
28 | O=C(O)CCc1cnc(-c2ccc(NCC3(c4ncccc4F)CCC3)nn2)s1 [3-{2-[6-({[(3-fluoro-2-pyridyl)cyclobutyl]methyl}ami-no)pyridazin-3-yl]-1,3-thiazol-5-yl}propanoic acid] | B (B=1-10 uM) |  | 
29 | O=c1[nH]nc(-c2ccc(F)c(-c3ccc(NCC4(c5ncccc5F)CCC4)nn3)c2)[nH]1 [3-{4-fluoro-3-[6-({[(3-fluoro(2-pyridyl))cyclobutyl]methyl}ami-no)pyridazin-3-yl]phenyl}-1,2,4-triazolin-5-one] |  | A (A=<1 uM) | 
30 | O=c1[nH]nc(-c2ccc(-c3ccc(NCC4(c5ncccc5F)CCC4)nn3)s2)[nH]1 [3-{5-[6-({[(3-fluoro-2-pyridyl)cyclobutyl]methyl}ami-no)pyridazin-3-yl]-2-thienyl}-1,2,4-triazolin-5-one] |  | A (A=<1 uM) | 
31 | NC(=O)c1ccc(O)c(-c2ccc(N3CC4(c5ncccc5F)CC3C4)nn2)c1 [3-{6-[4-(3-fluoro(2-pyridyl))-2-azabicyclo[2.1.1]hex-2-yl]pyridazin-3-yl}-4-hydroxybenzamide] | D (D=>20 uM) |  | 
32 | NC(=O)c1cccc(-c2ccc(NC3(c4nccs4)CCC3)nn2)c1 [3-{6-[(1,3-thiazol-2-ylcyclobutyl)amino]pyridazin-3-yl}benzamide] |  | D (D=>20 uM) | 
33 | CC(C)(Nc1ccc(-c2cccc(C(N)=O)c2)nn1)c1ccccn1 [3-{6-[(1-methyl-1-(2-pyridyl)ethyl)amino]pyridazin-3-yl}benzamide] |  | D (D=>20 uM) | 
34 | CC(C)(Nc1ccc(-c2cccc(C(N)=O)c2)nn1)c1ccccc1 [3-{6-[(1-methyl-1-phenylethyl)amino]pyridazin-3-yl}benzamide] |  | B (B=1-10 uM) | 
35 | CC(C)(Nc1ccc(-c2cccc(C#N)c2)nn1)c1ccccc1 [3-{6-[(1-methyl-1-phenylethyl)amino]pyridazin-3-yl}benzenecarbonitrile] |  | B (B=1-10 uM) | 
36 | NC(=O)c1cccc(-c2ccc(NCCc3ccccn3)nn2)c1 [3-{6-[(2-(2-pyridyl)ethyl)amino]pyridazin-3-yl}benzamide] |  |  | Mean AC1.4 [3]: D (D=>20 uM)
37 | NC(=O)c1cccc(-c2ccc(NCCc3cccnc3)nn2)c1 [3-{6-[(2-(3-pyridyl)ethyl)amino]pyridazin-3-yl}benzamide] |  |  | Mean AC1.4 [3]: D (D=>20 uM)
38 | NC(=O)c1cccc(-c2ccc(NCCc3ccncc3)nn2)c1 [3-{6-[(2-(4-pyridyl)ethyl)amino]pyridazin-3-yl}benzamide] |  |  | Mean AC1.4 [3]: D (D=>20 uM)
39 | CC(C)(CNc1ccc(-c2cccc(C(N)=O)c2)nn1)c1ncccn1 [3-{6-[(2-methyl-2-pyrimidin-2-ylpropyl)amino]pyridazin-3-yl}benzamide] |  |  | Mean AC1.4 [3]: D (D=>20 uM)
40 | NC(=O)c1cccc(-c2ccc(NCCc3ccccc3)nn2)c1 [3-{6-[(2-phenylethyl)amino]pyridazin-3-yl}benzamide] |  |  | Mean AC1.4 [3]: D (D=>20 uM)
